Reference: patent US20070197603A1 (published 2007)

SMILES | melting point
Cl.Clc1cccc(Cl)c1C1CCN(Cc2c(-c3ccccc3)n(Cc3ccccc3)c3ccccc23)CC1 | 209 to 210 °C
Clc1cccc(Cl)c1C1CCN(Cc2[nH]c3ccccc3c2-c2ccccc2)CC1 | 162 to 164 °C
Cc1cccc(C)c1C1CCN(Cc2cc3ccccc3[nH]2)CC1 | 128 to 130 °C
Cl.Cn1c(-c2ccccc2)c(CN2CCC(c3c(Cl)cccc3Cl)CC2)c2ccccc21 | 179 to 184 °C (dec.)
Cl.OCCn1c(CN2CCC(c3c(Cl)cccc3Cl)CC2)cc2ccccc21 | 263 to 265 °C
Cl.Clc1cccc(Cl)c1C1CCN(Cc2c(-c3ccccc3)[nH]c3ccccc23)CC1 | 169 to 171 °C
Cl.OCCn1c(-c2ccccc2)c(CN2CCC(c3c(Cl)cccc3Cl)CC2)c2ccccc21 | 205 to 206 °C
CCCn1c(-c2ccccc2)c(CN2CCC(c3c(Cl)cccc3Cl)CC2)c2ccccc21.Cl | 150 to 152 °C

The remaining lines, values ahead:

melting point | SMILES
139 to 141 °C | Cc1c(CN2CCC(c3c(Cl)cccc3Cl)CC2)[nH]c2ccccc12
168 to 170 °C | Cc1[nH]c2ccccc2c1CN1CCC(c2c(Cl)cccc2Cl)CC1
238 to 240 °C | Cl.Clc1cccc(Cl)c1C1CCN(Cc2cc3ccccc3[nH]2)CC1
189 to 190 °C | Cl.Clc1cccc(Cl)c1C1CCN(Cc2c[nH]c3ccccc23)CC1
